In patent US20100172916A1, “SUBSTITUTED HYDROXYPHENYLAMINE COMPOUNDS” (AUSPEX PHARMACEUTICALS, INC., priority 2008, published 2010):

Experiment: In vitro liver microsomal stability assay
Assay type: in vitro ADME
Conditions: 0.5 mg per mL liver microsome protein, NADPH-generating system, 5 microgram per mL test compound, 37° C., 0-30 minutes, LC/MS/MS
Method: Liver microsomal stability assays were conducted at 0.5 mg per mL liver microsome protein with an NADPH-generating system in 2% sodium bicarbonate (2.2 mM NADPH, 25.6 mM glucose 6-phosphate, 6 units per mL glucose 6-phosphate dehydrogenase and 3.3 mM magnesium chloride). Test compounds were prepared as solutions in 20% acetonitrile-water and were added to the assay mixture (final assay concentration 5 microgram per mL) and incubated at 37° C. Final concentration of acetonitrile in the assay should be <1%. Aliquots (50 μL) were taken out at times 0, 7.5, 15, 22.5, and 30 minutes, and diluted with ice cold acetonitrile (200 μL) to stop the reactions. Samples were centrifuged at 12,000 RPM for 10 minutes to precipitate proteins. Supernatants were transferred to microcentrifuge tubes and stored for LC/MS/MS analysis of the degradation half-life of the test compounds.

| degradation half-life as compared to the non-isotopically enriched drug | Structure (SMILES) |
| --- | --- |
| decrease in degradation half-life | [2H][C@@H](c1cccc(O)c1)[C@]([2H])(N)C(=O)O [Example 2, d3-2-Amino-3-(3-hydroxy-phenyl)-propionic acid] |
| decrease in degradation half-life | [2H]C([2H])(c1cccc(O)c1)[C@]([2H])(N)C(=O)O [Example 3, d3-2-Amino-3-(3-hydroxy-phenyl)-propionic acid] |
